Data taken from ChEMBL document CHEMBL4699626, “Potential α-glucosidase inhibitor from Hylotelephium erythrostictum” (Bioorg Med Chem Lett, 2020).
Each block holds one molecule with its values, some of them ahead of it. The source made the active and inactive calls. No cut-off for these calls is given here.

Tests used:
[1] = Inhibition of alpha-glucosidase (unknown origin) using p-nitrophenyl-alpha-D-glucopyranoside as substrate
[2] = Inhibition of alpha-glucosidase (unknown origin); set-up: species or system Homo sapiens
[3] = Inhibition of Saccharomyces cerevisiae alpha-glucosidase assessed as decrease in release of p-nitrophenol using pNPG as substrate preincubated for 2 hrs followed by substrate addition by spectrophotometric method
[4] = Competitive inhibition of alpha-glucosidase (unknown origin) by Dixon plot analysis; set-up: species or system Homo sapiens
[5] = species: Homo sapiens; experiment: Competitive inhibition of alpha-glucosidase (unknown origin) assessed as increase in Km with constant Vmax by Lineweaver-Burk plot analysis
[6] = species: Homo sapiens; experiment: Potency index, ratio of Acarbose IC50 to test compound IC50 for alpha-glucosidase (unknown origin)

IC50 ([1]; read-out: IC50): 731 µM
SMILES: COc1cc(O)c2c(=O)c(O)c(-c3ccc(O)cc3)oc2c1 [RHAMNOCITRIN]

IC50 [2]: 647 µM
SMILES: COc1ccc(-c2oc3cc(O)cc(O)c3c(=O)c2O)cc1 [KAEMPFERIDE]

IC50 [3]: 365 µM
SMILES: O=c1cc(-c2ccc(O)cc2)oc2cc(O)cc(O)c12 [APIGENIN]

IC50 ([1]; read-out: IC50): 420 µM
SMILES: O=c1c(O)c(-c2ccc(O)cc2)oc2cc(O)cc(O)c12 [KAEMPFEROL]

Ki [4]: 0.709 µM | inhibition [5]: Active | Ratio IC50 [6]: 457 | IC50 ([1]; read-out: IC50): 1.8 µM
SMILES: COC1(c2ccc(O)c(O)c2)Oc2cc(O)cc(O)c2C1=O (centres undefined)

IC50 [1]: Not Active
SMILES: COc1cc(OC)c2c(c1)OC(OC)(c1ccc(OC)c(OC)c1)C2=O (centres undefined)
